Measured values reported in patent US20170022242A1, “NOVEL ANTIVIRAL AND ANTITUMORAL COMPOUNDS” (KATHOLIEKE UNIVERSITEIT LEUVEN, KU LEUVEN R&D, priority 2014, published 2017).
pEC50: −log10 of the molar value. Where two headings read alike, the source gives them in different places.

Tests used:
HCV1b/Con1 replicon = assay: HCV replicon antiviral evaluation assay (Luc reporter); type: cell-based; conditions: concentration inhibiting HCV replicon by 50%, Huh7 ET cells, 72 hr
[1] = test system: ET (luc-ubi-neo/ET) Huh7 human hepatoma cell line; assay: Cytotoxicity, CytoTox-1 cell proliferation assay of cell numbers; conditions: concentration decreasing cell viability by 50%; Huh7 ET cells, 72 hr; Table 1
[2] = test system: ET (luc-ubi-neo/ET) Huh7 human hepatoma cell line
[3] = Cytotoxicity, CytoTox-1 cell proliferation assay of cell numbers; conditions: human
[4] = Table 1, 2′-C-methyl nucleoside phosphoramidates
[5] = Hepatitis C virus, Table 1, 2′-C-methyl nucleoside phosphoramidates

Work on COC(=O)[C@H](CC(=O)OCc1ccccc1)NP(=O)(OCC1OC(n2ccc(=O)[nH]c2=O)C(C)(O)C1O)Oc1ccccc1 (stereo partly drawn) [Cmpd 17b, 2′-C-methyluridine-5′-[phenyl-(α-methoxy-β-benzyloxy-aspartyl)]phosphate] yielded a pEC50 (HCV1b/Con1 replicon; [4]) of 6.59 and a CC50 [1] of 43.4 µM.

CCCCCOC(=O)C[C@H](NP(=O)(OCC1OC(n2ccc(=O)[nH]c2=O)C(C)(O)C1O)Oc1ccccc1)C(=O)OCCCCC (stereo partly drawn) [Cmpd 17e, 2′-C-Methyl-uridine-5′-[phenyl-bis(amyl-aspartyl)]phosphate] showed a pEC50 (HCV1b/Con1 replicon; [4]) of 7.52 and a CC50 [2] of 7.11 µM.

In the case of CC(C)CCOC(=O)C[C@H](NP(=O)(OCC1OC(n2ccc(=O)[nH]c2=O)C(C)(F)C1O)Oc1ccccc1)C(=O)OCCC(C)C (stereo partly drawn) [Cmpd 23a, 2′-Deoxy-2′-fluoro-2′-C-methyl-uridine-5′-[phenyl-bis(isoamyl-aspartyl)]phosphate], the pEC50 (HCV1b/Con1 replicon; Table 2, 2′-F-nucleoside phosphoramidates) was 7.22 and the CC50 [2] was 27.7 µM.

Compound CC(C)OC(=O)C[C@H](NP(=O)(OCC1OC(n2ccc(N)nc2=O)C(C)(O)C1O)Oc1ccccc1)C(=O)OC(C)C (stereo partly drawn) [Cmpd 16c, 2′-C-Methylcytidine-5′-[1-phenyl-bis(isopropyl-aspartyl)]phosphate] has a pEC50 (HCV1b/Con1 replicon; [4]) of 6.02 and a CC50 [1] of over 100 µM.

Work on CC(C)CCOC(=O)C[C@H](NP(=O)(OCC1OC(n2ccc(N)nc2=O)C(C)(O)C1O)Oc1ccccc1)C(=O)OCCC(C)C (stereo partly drawn) [Cmpd 16f, 2′-C-Methylcytidine-5′-[phenyl-bis(isoamyl-aspartyl)]phosphate] yielded a pEC50 (HCV1b/Con1 replicon; [4]) of 7.30 and a CC50 [1] of 9.54 µM.

For COC(=O)[C@H](CC(=O)OCc1ccccc1)NP(=O)(OCC1OC(n2ccc(N)nc2=O)C(C)(O)C1O)Oc1ccccc1 (stereo partly drawn) [Cmpd 16b, 2′-C-methylcytidine-5′-[phenyl-(α-methoxy-β-benzyloxy-aspartyl)]phosphate], the pEC50 (HCV1b/Con1 replicon; [4]) was 5.88 and the CC50 [1] was over 100 µM.

Work on C[C@@]1(O)[C@H](O)[C@@H](CO)O[C@H]1n1ccc(=O)[nH]c1=O [Cmpd 5, 2′-C-methyluridine, reference compound] yielded a pEC50 (HCV1b/Con1 replicon; [5]) of 5.20 and a CC50 at 72 h [3] of over 100 µM.

Compound COC(=O)C[C@H](NP(=O)(OCC1OC(n2ccc(=O)[nH]c2=O)C(C)(O)C1O)Oc1ccccc1)C(=O)OC (stereo partly drawn) [Cmpd 17a, 2′-C-methyluridine-5′-[phenyl-bis(methoxy-aspartyl)]phosphate] has a pEC50 (HCV1b/Con1 replicon; [4]) of 5.95 and a CC50 [1] of over 100 µM.

Compound C[C@@]1(F)[C@H](O)[C@@H](CO)O[C@H]1n1ccc(=O)[nH]c1=O [Cmpd 22, 2′-deoxy-2′-fluoro-2′-C-methyluridine, reference compound] has a pEC50 (HCV1b/Con1 replicon; Hepatitis C virus, Table 2, 2′-F-nucleoside phosphoramidates) of under 4.00 and a CC50 at 72 h [3] of over 100 µM.

For CCCCOC(=O)C[C@H](NP(=O)(OC[C@H]1O[C@@H](n2ccc(N)nc2=O)[C@](C)(O)[C@@H]1O)Oc1ccccc1)C(=O)OCCCC (stereo partly drawn) [Cmpd 16d, 2′-C-Methylcytidine-5′-[phenyl-bis(n-butyl-aspartyl)]phosphate], the pEC50 (HCV1b/Con1 replicon; [4]) was 6.59 and the CC50 [1] was 30.9 µM.

CC(C)CCOC(=O)C[C@H](NP(=O)(OCC1OC(n2ccc(=O)[nH]c2=O)C(C)(F)C1O)Oc1ccccc1)C(=O)OCCC(C)C (stereo partly drawn) [Mixture 23a/23b, 2′-Deoxy-2′-fluoro-2′-C-methyl-uridine-5′-[phenyl-bis(isoamyl-aspartyl)]phosphate] gave a CC50 [2] of 33.1 µM.

Compound C[C@@]1(O)[C@H](O)[C@@H](CO)O[C@H]1n1ccc(N)nc1=O [Cmpd 4, 2′-C-methylcytidine, reference compound] has a pEC50 (HCV1b/Con1 replicon; [5]) of 5.87 and a CC50 at 72 h [3] of over 100 µM.

For CC(C)OC(=O)C[C@H](NP(=O)(OCC1OC(n2ccc(=O)[nH]c2=O)C(C)(O)C1O)Oc1ccccc1)C(=O)OC(C)C (stereo partly drawn) [Cmpd 17c, 2′-C-Methyl-uridine-5′-[1-phenyl-bis(isopropyl-aspartyl)]phosphate], the pEC50 (HCV1b/Con1 replicon; [4]) was 6.54 and the CC50 [2] was 35.7 µM.

With COC(=O)C[C@H](NP(=O)(OCC1OC(n2ccc(N)nc2=O)C(C)(O)C1O)Oc1ccccc1)C(=O)OC (stereo partly drawn) [Cmpd 16a, 2′-C-methylcytidine-5′-[phenyl-bis(methoxy-aspartyl)]phosphate] the pEC50 (HCV1b/Con1 replicon; [4]) was 5.43 and the CC50 [1] was over 100 µM.

With CCCCCOC(=O)C[C@H](NP(=O)(OCC1OC(n2ccc(N)nc2=O)C(C)(O)C1O)Oc1ccccc1)C(=O)OCCCCC (stereo partly drawn) [Cmpd 16e, 2′-C-Methyl-cytidine-5′-[phenyl-bis(amyl-aspartyl)]phosphate] the pEC50 (HCV1b/Con1 replicon; [4]) was 7.30 and the CC50 [2] was 9.53 µM.

CC(C)CCOC(=O)C[C@H](NP(=O)(OCC1OC(n2ccc(=O)[nH]c2=O)C(C)(O)C1O)Oc1ccccc1)C(=O)OCCC(C)C (stereo partly drawn) [Cmpd 17f, 2′-C-Methyl-uridine-5′-[phenyl-bis(isoamyl-aspartyl)]phosphate] gave a pEC50 (HCV1b/Con1 replicon; [4]) of 7.52 and a CC50 [2] of 10 µM.

Compound CCCCOC(=O)C[C@H](NP(=O)(OCC1OC(n2ccc(=O)[nH]c2=O)C(C)(O)C1O)Oc1ccccc1)C(=O)OCCCC (stereo partly drawn) [Cmpd 17d, 2′-C-Methyl-uridine-5′-[phenyl-bis(n-butyl-aspartyl)]phosphate] has a pEC50 (HCV1b/Con1 replicon; [4]) of 7.40 and a CC50 [2] of 4.64 µM.
